Experimental findings from ChEMBL document CHEMBL2074440, “Molecular cloning, chromosomal localization, and functional characterization of a human liver Na+/bile acid cotransporter” (J Clin Invest, 1994) are described below.

Parameters in all cases: scale not given: the % may be the effect or the level left
In series [1] the target is T1, Hepatic sodium/bile acid cotransporter (Homo sapiens, UniProt Q14973).
T1 sequence (Q14973 whole entry): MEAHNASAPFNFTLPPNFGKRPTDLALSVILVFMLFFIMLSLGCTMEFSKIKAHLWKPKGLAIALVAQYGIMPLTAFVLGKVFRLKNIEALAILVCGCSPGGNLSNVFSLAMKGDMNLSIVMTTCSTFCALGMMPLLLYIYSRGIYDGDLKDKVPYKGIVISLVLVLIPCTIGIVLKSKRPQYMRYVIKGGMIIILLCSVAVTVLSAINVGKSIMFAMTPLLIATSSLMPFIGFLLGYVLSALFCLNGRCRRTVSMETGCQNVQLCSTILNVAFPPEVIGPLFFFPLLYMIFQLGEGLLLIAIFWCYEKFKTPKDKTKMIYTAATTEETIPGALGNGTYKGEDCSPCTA
In words: TP_TRANSPORTER: inhibition of Taurocholate uptake (Taurochorate: 10 uM, Bumetanide: 500 uM) in Xenopus laevis oocytes. Format: functional, cell-based. Particulars: oocyte.

The target of series [2] is T1, Hepatic sodium/bile acid cotransporter. Put plainly: TP_TRANSPORTER: inhibition of Taurocholate uptake (Taurochorate: 10 uM, CDCA: 100 uM) in Xenopus laevis oocytes. Format: functional, cell-based. Particulars: oocyte.
Series [3] shares this target. In words: TP_TRANSPORTER: inhibition of Taurocholate uptake (Taurochorate: 10 uM, GCDCA: 100 uM) in Xenopus laevis oocytes. Particulars: probe taurocholate (10 uM), read-out: Activity. Format: functional, cell-based, Oocyte.
For series [4] the target is unchanged. Put plainly: TP_TRANSPORTER: inhibition of Taurocholate uptake (Taurochorate: 10 uM, GC: 100 uM) in Xenopus laevis oocytes. The series is classed as functional, cell-based. The conditions noted are these: oocyte.
Series [5] shares this target. Put plainly: TP_TRANSPORTER: inhibition of Taurocholate uptake (Taurochorate: 10 uM, Lithocholate: 100 uM) in Xenopus laevis oocytes. Particulars: probe taurocholate (10 uM), read-out: Activity. Format: functional, cell-based, Oocyte.
The target is the same in series [6]. In words: TP_TRANSPORTER: inhibition of Taurocholate uptake (Taurochorate: 10 uM, Glycholithocholate: 100 uM) in Xenopus laevis oocytes. The series is classed as functional, cell-based, Oocyte. The conditions noted are these: probe taurocholate (10 uM), read-out: Activity.
The target is the same in series [7]. Put plainly: TP_TRANSPORTER: inhibition of Taurocholate uptake (Taurochorate: 10 uM, BSP: 100 uM) in Xenopus laevis oocytes. The series is classed as functional, cell-based, Oocyte. The conditions noted are these: probe taurocholate (10 uM), read-out: Activity.
Series [8] shares this target. Put plainly: TP_TRANSPORTER: inhibition of Taurocholate uptake (Taurochorate: 10 uM, TCDC: 100 uM) in Xenopus laevis oocytes. The series is classed as functional, cell-based. The conditions noted are these: oocyte.
The target is the same in series [9]. Put plainly: TP_TRANSPORTER: inhibition of Taurocholate uptake (Taurochorate: 10 uM, TDCA: 100 uM) in Xenopus laevis oocytes. Format: functional, cell-based. Particulars: oocyte.
The target is the same in series [10]. Put plainly: TP_TRANSPORTER: inhibition of Taurocholate uptake (Taurochorate: 10 uM, Taurolithocholate: 100 uM) in Xenopus laevis oocytes. The series is classed as functional, cell-based, Oocyte. Particulars: probe taurocholate (10 uM), read-out: Activity.
For series [11] the target is unchanged. In words: TP_TRANSPORTER: inhibition of Taurocholate uptake (Taurochorate: 10 uM, TUDC: 100 uM) in Xenopus laevis oocytes. Format: functional, cell-based. The conditions noted are these: oocyte.
The target is the same in series [12]. In words: TP_TRANSPORTER: inhibition of Taurocholate uptake (Taurochorate: 10 uM, UDCA: 100 uM) in Xenopus laevis oocytes. Format: functional, cell-based, Oocyte. The conditions noted are these: probe taurocholate (10 uM), read-out: Activity.

On to `CCCCNc1cc(C(=O)O)cc(S(N)(=O)=O)c1Oc1ccccc1` [BUMETANIDE], for which, in series [1], the Activity amounted to 71%.

As to `C[C@H](CCC(=O)O)[C@H]1CC[C@H]2[C@@H]3[C@H](O)C[C@@H]4C[C@H](O)CC[C@]4(C)[C@H]3CC[C@]12C` [CHENODIOL], the Activity in [2] is 13%.

As to `C[C@H](CCC(=O)NCC(=O)O)[C@H]1CC[C@H]2[C@@H]3[C@H](O)C[C@@H]4C[C@H](O)CC[C@]4(C)[C@H]3CC[C@]12C` [GLYCOCHENODEOXYCHOLATE], the activity at 100 µM in [3] worked out at 14%.

In turn, `C[C@H](CCC(=O)NCC(=O)O)[C@H]1CC[C@H]2[C@@H]3[C@H](O)C[C@@H]4C[C@H](O)CC[C@]4(C)[C@H]3C[C@H](O)[C@]12C` [GLYCOCHOLIC ACID] showed an Activity in [4] of 44%.

In the case of `C[C@H](CCC(=O)O)[C@H]1CC[C@H]2[C@@H]3CC[C@@H]4C[C@H](O)CC[C@]4(C)[C@H]3CC[C@]12C` [LITHOCHOLIC ACID], the activity at 100 µM in series [5] came out at 63%.

As to `C[C@H](CCC(=O)NCC(=O)O)[C@H]1CC[C@H]2[C@@H]3CC[C@@H]4C[C@H](O)CC[C@]4(C)[C@H]3CC[C@]12C` [LITHOGLYCOCHOLATE], the activity at 100 µM in [6] was 24%.

Regarding `O=C1OC(c2ccc(O)c(S(=O)(=O)O)c2)(c2ccc(O)c(S(=O)(=O)O)c2)c2c(Br)c(Br)c(Br)c(Br)c21` [SULFOBROMOPHTHALEIN SODIUM], the activity at 100 µM in [7] is 41%.

Compound `C[C@H](CCC(=O)NCCS(=O)(=O)O)[C@H]1CC[C@H]2[C@@H]3[C@H](O)C[C@@H]4C[C@H](O)CC[C@]4(C)[C@H]3CC[C@]12C` [TAUROCHENODEOXYCHOLATE] displayed an Activity in series [8] of 19%.

For the compound `C[C@H](CCC(=O)NCCS(=O)(=O)O)[C@H]1CC[C@H]2[C@@H]3CC[C@@H]4C[C@H](O)CC[C@]4(C)[C@H]3C[C@H](O)[C@]12C` [TAURODEOXYCHOLIC ACID], the Activity in series [9] is 10%.

As to `C[C@H](CCC(=O)NCCS(=O)(=O)O)[C@H]1CC[C@H]2[C@@H]3CC[C@@H]4C[C@H](O)CC[C@]4(C)[C@H]3CC[C@]12C` [TAUROLITHOCHOLIC ACID], the activity at 100 µM in series [10] came out at 33%.

On to `C[C@H](CCC(=O)NCCS(=O)(=O)O)[C@H]1CC[C@H]2[C@@H]3[C@@H](O)C[C@@H]4C[C@H](O)CC[C@]4(C)[C@H]3CC[C@]12C` [TAURURSODIOL], for which the Activity in series [11] was determined as 8%.

In the case of `C[C@H](CCC(=O)O)[C@H]1CC[C@H]2[C@@H]3[C@@H](O)C[C@@H]4C[C@H](O)CC[C@]4(C)[C@H]3CC[C@]12C` [URSODIOL], the activity at 100 µM in series [12] was 45%.
